{
  "source": "patent US11951108B2",
  "about": "“Combination therapy for treating cancer” (Epizyme, Inc., priority 2016, dated 2024)",
  "key": {"COV644*": {"test_system": "COV644*", "assay": "In vitro combination study, ovarian cancer cell line COV644", "conditions": "COV644*; 7+3 model"}, "HCC1187": {"test_system": "HCC1187", "assay": "In vitro combination study, breast cancer cell line HCC1187", "conditions": "ER/PR −/−, HER2 −, 7 day pre-treatment + 6 day co-treatment"}, "ES-2": {"test_system": "ES-2", "assay": "In vitro combination study, ovarian cancer cell line ES-2", "conditions": "4+3 model"}},
  "data": [
    {"smiles": "CC(=O)O[C@H]1C(=O)[C@@]2(C)[C@H]([C@H](OC(=O)c3ccccc3)[C@]3(O)C[C@H](OC(=O)[C@H](O)[C@@H](NC(=O)c4ccccc4)c4ccccc4)C(C)=C1C3(C)C)[C@]1(OC(C)=O)CO[C@@H]1C[C@@H]2O", "note": "[Paclitaxel]", "values": [
      {"measurement": "Synergy or antagonism of second agent with tazemetostat (IC50 shift of second agent)", "setting": "DU4475", "value": "B (key: B: Synergy > 4× IC50 shift; Synergy > 2× IC50 shift; No Effect; Antagonism; X: Not Tested)"},
      {"measurement": "Synergy or antagonism of second agent with tazemetostat (IC50 shift of second agent)", "setting": "COV644*", "value": "C (Synergy > 2× IC50 shift)"},
      {"measurement": "Synergy or antagonism of second agent with tazemetostat (IC50 shift of second agent)", "setting": "RMUGS*", "value": "C (key: B: Synergy > 4× IC50 shift; Synergy > 2× IC50 shift; No Effect; Antagonism; X: Not Tested)"},
      {"measurement": "Synergy or antagonism of second agent with tazemetostat (IC50 shift of second agent)", "setting": "HCC1187", "value": "C (Synergy > 2× IC50 shift)"},
      {"measurement": "Synergy or antagonism of second agent with tazemetostat (IC50 shift of second agent)", "setting": "JH)S-4", "value": "C (key: B: Synergy > 4× IC50 shift; Synergy > 2× IC50 shift; No Effect; Antagonism; X: Not Tested)"},
      {"measurement": "Synergy or antagonism of second agent with tazemetostat (IC50 shift of second agent)", "setting": "A2780", "value": "C (key: B: Synergy > 4× IC50 shift; Synergy > 2× IC50 shift; No Effect; Antagonism; X: Not Tested)"},
      {"measurement": "Synergy or antagonism of second agent with tazemetostat (IC50 shift of second agent)", "setting": "OAW42", "value": "B (key: B: Synergy > 4× IC50 shift; Synergy > 2× IC50 shift; No Effect; Antagonism; X: Not Tested)"},
      {"measurement": "Synergy or antagonism of second agent with tazemetostat (IC50 shift of second agent)", "setting": "SKOV3", "value": "C (key: B: Synergy > 4× IC50 shift; Synergy > 2× IC50 shift; No Effect; Antagonism; X: Not Tested)"},
      {"measurement": "Synergy or antagonism of second agent with tazemetostat (IC50 shift of second agent)", "setting": "ES-2", "value": "C (Synergy > 2× IC50 shift)"}
    ]}
  ]
}
